Assays:
galium (GALAP) [1] = assay: Test 22 growth chamber, postemergence; assay type: in vivo, Galium aparine; conditions: 25 DAA
Protocol: A test was conducted to evaluate the effects on winter barley (HORVW, Hordeum vulgare L.), winter wheat (TRZAW, Triticum aestivum L.), and several weed species of mixtures of Compound 2 with the commercial herbicides (2,4-dichlorophenoxy)acetic acid (2,4-D) and (4-chloro-2-methylphenoxy)acetic acid (MCPA), auxin mimics. […] Plants were treated postemergence at the 2-4 leaf growth stage, except KCHSC, SASKR and STEME which were in the 4-8 leaf growth stage. Each treatment was replicated one time. […] Plants were watered as needed. […] Results are from single replicates.

galium (GALAP) [2] = assay: Test 21 growth chamber, postemergence; assay type: in vivo, Galium aparine; conditions: 19 DAA
Protocol: (§1) A test was conducted to evaluate the effects on winter barley (HORVW, Hordeum vulgare L.), winter wheat (TRZAW, Triticum aestivum L.), and several weed species, of mixtures of Compound 2 with the commercial herbicide (2,4-dichlorophenoxy)acetic acid (2,4-D), an auxin mimic. […] Plants were treated postemergence at the 2-4 leaf growth stage, and each treatment was replicated one time. […] Plants were watered as needed. […] Results are from single replicates.

wild chamomile (MATCH) = assay: Test 21 growth chamber, postemergence; assay type: in vivo, Matricaria chamomilla; conditions: 19 DAA
Protocol: as §1

winter wheat (TRZAW) [3] = assay: Test 19 growth chamber, postemergence; assay type: in vivo, Triticum aestivum
Protocol: as §1, with “L.) and” for “L.),”, “L.)” for “L.), and several weed species,”, “3-leaf” for “2-4 leaf”, “four times.” for “one time.”, “the means of the four” for “from single”

wild mustard (SINAR) = assay: Test 21 growth chamber, postemergence; assay type: in vivo, Sinapis arvensis; conditions: 19 DAA
Protocol: as §1

winter wheat (TRZAW) [4] = assay: Test 20 growth chamber, postemergence; assay type: in vivo, Triticum aestivum; conditions: 25 DAA
Protocol: A test was conducted to evaluate the effects on winter barley (HORVW, Hordeum vulgare L.) and winter wheat (TRZAW, Triticum aestivum L.) of mixtures of Compound 2 with the commercial herbicides (2,4-dichlorophenoxy)acetic acid (2,4-D) and (4-chloro-2-methylphenoxy)acetic acid (MCPA), auxin mimics. […] Plants were treated postemergence at the 2-leaf growth stage, and each treatment was replicated a total of four times (three times in the loam/sand blend and one time in RediEarth). […] Plants were watered as needed. […] Results are the means of the four replicates.

corn (ZEAMD) = assay: Test 2 field trial, preemergence; assay type: in vivo, Zea mays ssp. indentata
From the text: Corn seeds (hybrid ‘Pioneer 31G96’) were planted in mid spring season, 3.8 cm deep in a clay loam soil having 2% organic matter and a pH of 6.6. Plots were 6.1 m long by 3.0 m wide with rows spaced 76 cm apart. Seeds were spaced 15 cm apart within the rows. The field was managed using conventional tillage practices. […] A few of the weed species could not be evaluated at every timing. […] Results are the means of the three replicates.

[5] = test system: Italian cocklebur (XANSI); assay: Test 12 field trial, preemergence; assay type: in vivo, Xanthium strumarium ssp. italicum; set-up: scale not given here; conditions: Cpd 2 or Cpd 1 62 g a.i./ha, Diuron 2000 g a.i./ha
From the text: (§2) In early-mid spring season, corn seeds (hybrid ‘Pioneer 3041’) were planted 5 cm deep and sugarcane nodes (variety RB-72.454) were planted 10 cm deep in separate plots in a clay soil having 2.6% organic matter and a pH of 5.6. Plots were 24 m long by 1.5 m wide with rows spaced 80 cm (corn) or 140 cm (sugarcane) apart. Corn seeds were spaced 15 cm apart and sugarcane nodes were spaced 10 cm apart within the rows. At the same time, weed seeds were broadcast over the surface of separate plots without a crop, one weed species per plot. The weed plots were rotary tilled to incorporate the weed seeds to a variety of depths. The field was managed using conventional tillage practices.

common blackjack (BIDPI) = assay: Test 12 field trial, preemergence; assay type: in vivo, Bidens pilosa; set-up: scale not given here; conditions: Cpd 2 or Cpd 1 62 g a.i./ha, Diuron 2000 g a.i./ha
From the text: as §2

[6] = test system: Virginia pepperweed (LEPVI); assay: Test 3 field trial, emerged weeds before corn planting; assay type: in vivo, Lepidium virginicum; conditions: Cpd 2 100, glyphosate 1540, paraquat 1150 g a.i./ha, alone or combined
From the text: (§3) Corn seeds (hybrid ‘Pioneer 33J56’) were planted in early spring season, 3.8 cm deep in a silt loam soil having 2.4% organic matter and a pH of 6. Plots were 6.1 m long by 2.7 m wide with rows spaced 91.4 cm apart. The field was managed using no-till practices. […] Compound 2 and paraquat treatments, alone and in combination, also included a surfactant. Glyphosate, alone and with Compound 2, included ammonium sulfate in the treatment mixture. […] The effects on the weeds in the treated plots and untreated control plots were recorded 30, 42, 46 and 68 days after application. Most of the weed species could not be evaluated at every timing. Corn response was not evaluated because the growth was highly variable depending on the efficacy of the weed control treatments. […] Results are the means of the three replicates.

giant foxtail (SETFA) = assay: as above; assay type: in vivo, Setaria faberi; conditions: 68 DAA; Cpd 2 100, glyphosate 1540, paraquat 1150 g a.i./ha, alone or combined
From the text: as §3

[7] = 2,4-D or MCPA alone 250 g a.i./ha

Q: Which “Postemergence GALAP Obs” value (galium (GALAP) [1]; [7]) does the source give for `O=C(O)COc1ccc(Cl)cc1Cl` [2,4-D, (2,4-dichlorophenoxy)acetic acid] here?
A: Its value is 30.

Q: And the “Postemergence GALAP Obs” value (galium (GALAP) [2]; 2,4-D alone 125 g a.i./ha)?
A: The value was 30.

Q: And the “Postemergence GALAP Obs” value (galium (GALAP) [2]; 2,4-D alone 250 g a.i./ha)?
A: The value was 35.

Q: And the “Postemergence MATCH Obs” value (wild chamomile (MATCH); 2,4-D alone 125 g a.i./ha)?
A: The value was 40.

Q: What about the “Postemergence MATCH Obs” value (wild chamomile (MATCH); 2,4-D alone 250 g a.i./ha) of the same molecule?
A: The value was 45.

Q: What about the “TRZAW Obs” value (winter wheat (TRZAW) [3]; Postemergence, 17 DAA, g a.i./ha: Cpd 2 16, 2,4-D 250) of the same molecule?
A: Its value is 23.

Q: And the “TRZAW Obs” value (winter wheat (TRZAW) [3]; Postemergence, 17 DAA, g a.i./ha: Cpd 2 16, 2,4-D 500)?
A: The value was 23.

Q: What about the “TRZAW Obs” value (winter wheat (TRZAW) [3]; Postemergence, 17 DAA, g a.i./ha: Cpd 2 16, 2,4-D 1000) of the same molecule?
A: Its value is 25.

Q: And the “Postemergence SINAR Obs” value (wild mustard (SINAR); 2,4-D alone 125 g a.i./ha)?
A: Its value is 85.

Q: And the “Postemergence SINAR Obs” value (wild mustard (SINAR); 2,4-D alone 250 g a.i./ha)?
A: The value was 65.

Q: What about the “Postemergence TRZAW Obs” value (winter wheat (TRZAW) [4]; [7]) of the same molecule?
A: The value was 18.

Q: What does the source list for `CCNc1nc(Cl)nc(NC(C)C)n1` [Atrazine, atrazine, reference compound]?
A: ZEAMD Obs (corn (ZEAMD); 18 DAA, g a.i./ha: Cpd 2 25, Atrazine 250): 8; ZEAMD Obs (corn (ZEAMD); 18 DAA, g a.i./ha: Cpd 2 50, Atrazine 500): 5; ZEAMD Obs (corn (ZEAMD); 18 DAA, g a.i./ha: Cpd 2 75, Atrazine 750): 15; ZEAMD Obs (corn (ZEAMD); 18 DAA, g a.i./ha: Cpd 2 100, Atrazine 1000): 7; ZEAMD Obs (corn (ZEAMD); 18 DAA, g a.i./ha: Cpd 2 150, Atrazine 1500): 5; ZEAMD Obs (corn (ZEAMD); 28 DAA, g a.i./ha: Cpd 2 25, Atrazine 250): 2; ZEAMD Obs (corn (ZEAMD); 28 DAA, g a.i./ha: Cpd 2 50, Atrazine 500): 7; ZEAMD Obs (corn (ZEAMD); 28 DAA, g a.i./ha: Cpd 2 75, Atrazine 750): 12; ZEAMD Obs (corn (ZEAMD); 28 DAA, g a.i./ha: Cpd 2 100, Atrazine 1000): 8; ZEAMD Obs (corn (ZEAMD); 28 DAA, g a.i./ha: Cpd 2 150, Atrazine 1500): 3; ZEAMD Obs (corn (ZEAMD); 55 DAA, g a.i./ha: Cpd 2 25, Atrazine 250): 0; ZEAMD Obs (corn (ZEAMD); 55 DAA, g a.i./ha: Cpd 2 50, Atrazine 500): 0; ZEAMD Obs (corn (ZEAMD); 55 DAA, g a.i./ha: Cpd 2 75, Atrazine 750): 0; ZEAMD Obs (corn (ZEAMD); 55 DAA, g a.i./ha: Cpd 2 100, Atrazine 1000): 0; ZEAMD Obs (corn (ZEAMD); 55 DAA, g a.i./ha: Cpd 2 150, Atrazine 1500): 0

Q: `Nc1nc(C2CC2)nc(C(=O)O)c1Cl` [Compound 1, 6-amino-5-chloro-2-cyclopropyl-4-pyrimidinecarboxylic acid] was tested. Which “XANSI Obs” value ([5]; 15 DAA) did it give?
A: Its value is 40.

Q: What about the “XANSI Obs” value ([5]; 29 DAA) of the same molecule?
A: Its value is 90.

Q: What about the “XANSI Obs” value ([5]; 48 DAA) of the same molecule?
A: The value was 90.

Q: And the “XANSI Obs” value ([5]; 61 DAA)?
A: The value was 60.

Q: What about the “BIDPI Obs” value (common blackjack (BIDPI); 15 DAA) of the same molecule?
A: Its value is 70.

Q: What about the “BIDPI Obs” value (common blackjack (BIDPI); 29 DAA) of the same molecule?
A: Its value is 80.

Q: And the “BIDPI Obs” value (common blackjack (BIDPI); 48 DAA)?
A: The value was 80.

Q: And the “BIDPI Obs” value (common blackjack (BIDPI); 61 DAA)?
A: The value was 60.

Q: Which “XANSI Obs” value ([5]; 15 DAA) does the source give for `COC(=O)c1nc(C2CC2)nc(N)c1Cl` [Compound 2, methyl 6-amino-5-chloro-2-cyclopropyl-4-pyrimidinecarboxylate] here?
A: Its value is 0.

Q: What about the “XANSI Obs” value ([5]; 29 DAA) of the same molecule?
A: Its value is 70.

Q: And the “XANSI Obs” value ([5]; 48 DAA)?
A: Its value is 60.

Q: And the “XANSI Obs” value ([5]; 61 DAA)?
A: Its value is 40.

Q: And the “Postemergence GALAP Obs” value (galium (GALAP) [1]; Cpd 2 alone 4 g a.i./ha)?
A: Its value is 65.

Q: What about the “Postemergence GALAP Obs” value (galium (GALAP) [1]; Cpd 2 alone 8 g a.i./ha) of the same molecule?
A: Its value is 90.

Q: What about the “Postemergence GALAP Obs” value (galium (GALAP) [1]; Cpd 2 alone 16 g a.i./ha) of the same molecule?
A: Its value is 100.

Q: And the “LEPVI Obs” value ([6]; 30 DAA)?
A: Its value is 69%.

Q: What about the “LEPVI Obs” value ([6]; 42 DAA) of the same molecule?
A: The value was 18%.

Q: And the “LEPVI Obs” value ([6]; 46 DAA)?
A: Its value is 23%.

Q: And the “SETFA Obs” value (giant foxtail (SETFA))?
A: The value was 40%.

Q: And the “Postemergence GALAP Obs” value (galium (GALAP) [2]; Cpd 2 alone 16 g a.i./ha)?
A: The value was 90.

Q: What about the “Postemergence MATCH Obs” value (wild chamomile (MATCH); Cpd 2 alone 16 g a.i./ha) of the same molecule?
A: Its value is 60.

Q: And the “TRZAW Obs” value (winter wheat (TRZAW) [3]; in vivo)?
A: The value was 43.

Q: What about the “BIDPI Obs” value (common blackjack (BIDPI); 15 DAA) of the same molecule?
A: The value was 60.

Q: What about the “BIDPI Obs” value (common blackjack (BIDPI); 29 DAA) of the same molecule?
A: Its value is 80.

Q: What about the “BIDPI Obs” value (common blackjack (BIDPI); 48 DAA) of the same molecule?
A: Its value is 80.

Q: What about the “BIDPI Obs” value (common blackjack (BIDPI); 61 DAA) of the same molecule?
A: The value was 70.

Q: And the “Postemergence SINAR Obs” value (wild mustard (SINAR); Cpd 2 alone 16 g a.i./ha)?
A: The value was 65.

Q: And the “ZEAMD Obs” value (corn (ZEAMD); hybrid Pioneer 31G96, corn (Zea mays ssp. indentata), in vivo, 55 days after application)?
A: The value was 0.

Q: And the “Postemergence TRZAW Obs” value (winter wheat (TRZAW) [4]; Cpd 2 alone 4 g a.i./ha)?
A: Its value is 23.

Q: What about the “Postemergence TRZAW Obs” value (winter wheat (TRZAW) [4]; Cpd 2 alone 8 g a.i./ha) of the same molecule?
A: The value was 28.

Q: What about the “Postemergence TRZAW Obs” value (winter wheat (TRZAW) [4]; Cpd 2 alone 16 g a.i./ha) of the same molecule?
A: Its value is 35.

Q: What does the source list for `O=C(O)CNCP(=O)(O)O` [Glyphosate]?
A: LEPVI Obs ([6]; 30 DAA): 98%; LEPVI Obs ([6]; 42 DAA): 82%; LEPVI Obs ([6]; 46 DAA): 98%; SETFA Obs (giant foxtail (SETFA)): 0%

— US20100285959A1, “HERBICIDAL MIXTURES” (priority 2006, published 2010)
